Key:
[1] = tested on: HCV genotype 1b (Con1) replicon in HUH-7 cells; assay: HCV replicon luciferase reporter assay, genotype 1b; type: cell-based; conditions: Hepatitis C virus, Huh-7, 72 h, HCV genotype 1b replicon luciferase assay, 3 days incubation, range class, read-out: LE_1b (EC50, range)
How it was run: (§1)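 Replicon inhibition for both genotypes was measured as Renilla luciferase signal (EnduRen, 7.5 μM final, 2 h) after 3-day, 37° C exposure of replicon-bearing HUH-7 cells in 4% FCS DMEM, 0.5% DMSO. The 1b construct carries S1179I; the 1a H77 construct carries P1496L and S2204I. Twenty-point, 3-fold dilutions were fitted four-parametrically for EC50, and CC50 was taken from multiplexed Cell Titer-Blue.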

[2] = tested on: HCV genotype 1a (H77 strain) replicon in HUH-7 cells; assay: HCV replicon luciferase reporter assay, genotype 1a; type: cell-based; conditions: Hepatitis C virus, Huh-7, 72 h, HCV genotype 1a replicon luciferase assay, 3 days incubation, range class, read-out: LE_1a (EC50, range)
How it was run: as §1

For `COc1ccc2c(O[C@@H]3C[C@H]4C(=O)N[C@]5(C(=O)NS(=O)(=O)C6CC6)C[C@H]5/C=C\CC[C@@H](C)C[C@@H](C)[C@H](NC(=O)O[C@H](C)C(F)(F)F)C(=O)N4C3)nc(-c3ccc(OC(C)C)c(F)c3)cc2c1` [Compound 3074, (R)-1,1,1-trifluoropropan-2-yl ((2R,6S,7R,9R,13aS,14aR,16aS,Z)-14a-((cyclopropylsulfonyl)carbamoyl)-2-((3-(3-fluoro-4-isopropoxyphenyl)-6-methoxyisoquinolin-1-yl)oxy)-7,9-dimethyl-5,16-dioxo-1,2,3,5,6,7,8,9,10,11,13a,14,14a,15,16,16a-hexadecahydrocyclopropa[e]pyrrolo[1,2-a][1,4]diazacyclopentadecin-6-yl)carbamate], the EC50 [1] was < 5.46 nM and the EC50 [2] was < 5.46 nM.

For `COc1ccc2c(O[C@@H]3C[C@H]4C(=O)N[C@]5(C(=O)NS(=O)(=O)C6(C)CC6)C[C@H]5/C=C\CC[C@H](C)C[C@@H](C)[C@H](NC(=O)O[C@H](C)C(F)(F)F)C(=O)N4C3)nc(-c3ccc(OC(C)C)c(F)c3)cc2c1` [Compound 3075, (R)-1,1,1-trifluoropropan-2-yl ((2R,6S,7R,9S,13aS,14aR,16aS,Z)-2-((3-(3-fluoro-4-isopropoxyphenyl)-6-methoxyisoquinolin-1-yl)oxy)-7,9-dimethyl-14a-(((1-methylcyclopropyl)sulfonyl)carbamoyl)-5,16-dioxo-1,2,3,5,6,7,8,9,10,11,13a,14,14a,15,16,16a-hexadecahydrocyclopropa[e]pyrrolo[1,2-a][1,4]diazacyclopentadecin-6-yl)carbamate], the EC50 [1] was < 5.46 nM and the EC50 [2] was 4.82 to 103 nM.

In the case of `COc1ccc2c(O[C@@H]3C[C@H]4C(=O)N[C@]5(C(=O)NS(=O)(=O)C6(C)CC6)C[C@H]5/C=C\CC[C@@H](C)C[C@@H](C)[C@H](NC(=O)O[C@H](C)C(F)(F)F)C(=O)N4C3)nc(-c3ccc(OC(C)C)c(F)c3)cc2c1` [Compound 3076, (R)-1,1,1-trifluoropropan-2-yl ((2R,6S,7R,9R,13aS,14aR,16aS,Z)-2-((3-(3-fluoro-4-isopropoxyphenyl)-6-methoxyisoquinolin-1-yl)oxy)-7,9-dimethyl-14a-(((1-methylcyclopropyl)sulfonyl)carbamoyl)-5,16-dioxo-1,2,3,5,6,7,8,9,10,11,13a,14,14a,15,16,16a-hexadecahydrocyclopropa[e]pyrrolo[1,2-a][1,4]diazacyclopentadecin-6-yl)carbamate], the EC50 [1] is reported as < 5.46 nM and the EC50 [2] is reported as < 5.46 nM.

In the case of `COc1ccc2c(O[C@@H]3C[C@H]4C(=O)N[C@]5(C(=O)NS(=O)(=O)C6(C)CC6)C[C@H]5/C=C\CC[C@H](C)C[C@@H](C)[C@H](NC(=O)OC(C)(C)C(F)(F)F)C(=O)N4C3)nc(-c3ccc(OC(C)C)c(F)c3)cc2c1` [Compound 3077, 1,1,1-trifluoro-2-methylpropan-2-yl((2R,6S,7R,9S,13aS,14aR,16aS,Z)-2-((3-(3-fluoro-4-isopropoxyphenyl)-6-methoxyisoquinolin-1-yl)oxy)-7,9-dimethyl-14a-(((1-methylcyclopropyl)sulfonyl)carbamoyl)-5,16-dioxo-1,2,3,5,6,7,8,9,10,11,13a,14,14a,15,16,16a-hexadecahydrocyclopropa[e]pyrrolo[1,2-a][1,4]diazacyclopentadecin-6-yl)carbamate], the EC50 [1] is reported as < 5.46 nM and the EC50 [2] is reported as 4.82 to 103 nM.

For `COc1ccc2c(O[C@@H]3C[C@H]4C(=O)N[C@]5(C(=O)NS(=O)(=O)C6(C)CC6)C[C@H]5/C=C\CC[C@@H](C)C[C@@H](C)[C@H](NC(=O)OC(C)(C)C(F)(F)F)C(=O)N4C3)nc(-c3ccc(OC(C)C)c(F)c3)cc2c1` [Compound 3078, 1,1,1-trifluoro-2-methylpropan-2-yl((2R,6S,7R,9R,13aS,14aR,16aS,Z)-2-((3-(3-fluoro-4-isopropoxyphenyl)-6-methoxyisoquinolin-1-yl)oxy)-7,9-dimethyl-14a-(((1-methylcyclopropyl)sulfonyl)carbamoyl)-5,16-dioxo-1,2,3,5,6,7,8,9,10,11,13a,14,14a,15,16,16a-hexadecahydrocyclopropa[e]pyrrolo[1,2-a][1,4]diazacyclopentadecin-6-yl)carbamate], the EC50 [1] was < 5.46 nM and the EC50 [2] was < 5.46 nM.

With `COc1ccc2c(O[C@@H]3C[C@H]4C(=O)N[C@]5(C(=O)NS(=O)(=O)C6(C)CC6)C[C@H]5/C=C\CC[C@H](C)C[C@@H](C)[C@H](NC(=O)OC(C)(C)C(F)(F)F)C(=O)N4C3)nc(-c3ccc(F)cc3)cc2c1` [Compound 3079, 1,1,1-trifluoro-2-methylpropan-2-yl((2R,6S,7R,9S,13aS,14aR,16aS,Z)-2-((3-(4-fluorophenyl)-6-methoxyisoquinolin-1-yl)oxy)-7,9-dimethyl-14a-(((1-methylcyclopropyl)sulfonyl)carbamoyl)-5,16-dioxo-1,2,3,5,6,7,8,9,10,11,13a,14,14a,15,16,16a-hexadecahydrocyclopropa[e]pyrrolo[1,2-a][1,4]diazacyclopentadecin-6-yl)carbamate] the EC50 [1] was < 5.46 nM and the EC50 [2] was 4.82 to 103 nM.

`COc1ccc2c(O[C@@H]3C[C@H]4C(=O)N[C@]5(C(=O)NS(=O)(=O)C6(C)CC6)C[C@H]5/C=C\CC[C@@H](C)C[C@@H](C)[C@H](NC(=O)OC(C)(C)C(F)(F)F)C(=O)N4C3)nc(-c3ccc(F)cc3)cc2c1` [Compound 3080, 1,1,1-trifluoro-2-methylpropan-2-yl((2R,6S,7R,9R,13aS,14aR,16aS,Z)-2-((3-(4-fluorophenyl)-6-methoxyisoquinolin-1-yl)oxy)-7,9-dimethyl-14a-(((1-methylcyclopropyl)sulfonyl)carbamoyl)-5,16-dioxo-1,2,3,5,6,7,8,9,10,11,13a,14,14a,15,16,16a-hexadecahydrocyclopropa[e]pyrrolo[1,2-a][1,4]diazacyclopentadecin-6-yl)carbamate] was tested, and the EC50 [1] was < 5.46 nM and the EC50 [2] was < 5.46 nM.

`COc1ccc2c(O[C@@H]3C[C@H]4C(=O)N[C@]5(C(=O)NS(=O)(=O)C6(C)CC6)C[C@H]5/C=C\CC[C@H](C)C[C@@H](C)[C@H](NC(=O)OC(C)(C)C)C(=O)N4C3)nc(-c3ccc(F)cc3)cc2c1` [Compound 3081, tert-butyl ((2R,6S,7R,9S,13aS,14aR,16aS,Z)-2-((3-(4-fluorophenyl)-6-methoxyisoquinolin-1-yl)oxy)-7,9-dimethyl-14a-(((1-methylcyclopropyl)sulfonyl)carbamoyl)-5,16-dioxo-1,2,3,5,6,7,8,9,10,11,13a,14,14a,15,16,16a-hexadecahydrocyclopropa[e]pyrrolo[1,2-a][1,4]diazacyclopentadecin-6-yl)carbamate] was tested, and the EC50 [1] was < 5.46 nM and the EC50 [2] was 4.82 to 103 nM.

For `COc1ccc2c(O[C@@H]3C[C@H]4C(=O)N[C@]5(C(=O)NS(=O)(=O)C6(C)CC6)C[C@H]5/C=C\CC[C@@H](C)C[C@@H](C)[C@H](NC(=O)OC(C)(C)C)C(=O)N4C3)nc(-c3ccc(F)cc3)cc2c1` [Compound 3082, tert-butyl ((2R,6S,7R,9R,13aS,14aR,16aS,Z)-2-((3-(4-fluorophenyl)-6-methoxyisoquinolin-1-yl)oxy)-7,9-dimethyl-14a-(((1-methylcyclopropyl)sulfonyl)carbamoyl)-5,16-dioxo-1,2,3,5,6,7,8,9,10,11,13a,14,14a,15,16,16a-hexadecahydrocyclopropa[e]pyrrolo[1,2-a][1,4]diazacyclopentadecin-6-yl)carbamate], the EC50 [1] was < 5.46 nM and the EC50 [2] was < 5.46 nM.

`COc1ccc2c(O[C@@H]3C[C@H]4C(=O)N[C@]5(C(=O)NS(=O)(=O)C6(C)CC6)C[C@H]5/C=C\CC[C@@H](C)C[C@@H](C)[C@H](NC(=O)O[C@H](C)C(F)(F)F)C(=O)N4C3)nc(-c3ccc(F)cc3)cc2c1` [Compound 3083, (R)-1,1,1-trifluoropropan-2-yl ((2R,6S,7R,9R,13aS,14aR,16aS,Z)-2-((3-(4-fluorophenyl)-6-methoxyisoquinolin-1-yl)oxy)-7,9-dimethyl-14a-(((1-methylcyclopropyl)sulfonyl)carbamoyl)-5,16-dioxo-1,2,3,5,6,7,8,9,10,11,13a,14,14a,15,16,16a-hexadecahydrocyclopropa[e]pyrrolo[1,2-a][1,4]diazacyclopentadecin-6-yl)carbamate] was tested, and the EC50 [1] was < 5.46 nM and the EC50 [2] was < 5.46 nM.

For `COc1ccc2c(O[C@@H]3C[C@H]4C(=O)N[C@]5(C(=O)NS(=O)(=O)C6(C)CC6)C[C@H]5/C=C\CC[C@H](C)C[C@@H](C)[C@H](NC(=O)OCC5(C)CC5)C(=O)N4C3)nc(-c3ccc(F)cc3)cc2c1` [Compound 3084, (1-methylcyclopropyl)methyl ((2R,6S,7R,9S,13aS,14aR,16aS,Z)-2-((3-(4-fluorophenyl)-6-methoxyisoquinolin-1-yl)oxy)-7,9-dimethyl-14a-(((1-methylcyclopropyl)sulfonyl)carbamoyl)-5,16-dioxo-1,2,3,5,6,7,8,9,10,11,13a,14,14a,15,16,16a-hexadecahydrocyclopropa[e]pyrrolo[1,2-a][1,4]diazacyclopentadecin-6-yl)carbamate], the EC50 [1] was < 5.46 nM and the EC50 [2] was 4.82 to 103 nM.

`COc1ccc2c(O[C@@H]3C[C@H]4C(=O)N[C@]5(C(=O)NS(=O)(=O)C6(C)CC6)C[C@H]5/C=C\CC[C@@H](C)C[C@@H](C)[C@H](NC(=O)OCC5(C)CC5)C(=O)N4C3)nc(-c3ccc(F)cc3)cc2c1` [Compound 3085, (1-methylcyclopropyl)methyl ((2R,6S,7R,9R,13aS,14aR,16aS,Z)-2-((3-(4-fluorophenyl)-6-methoxyisoquinolin-1-yl)oxy)-7,9-dimethyl-14a-(((1-methylcyclopropyl)sulfonyl)carbamoyl)-5,16-dioxo-1,2,3,5,6,7,8,9,10,11,13a,14,14a,15,16,16a-hexadecahydrocyclopropa[e]pyrrolo[1,2-a][1,4]diazacyclopentadecin-6-yl)carbamate] was tested, and the EC50 [1] was < 5.46 nM and the EC50 [2] was < 5.46 nM.

Reference: patent publication US9499550B2 (BRISTOL-MYERS SQUIBB COMPANY, priority 2012, dated 2016)
